In patent US9242987B2, “Heterocyclyl pyrazolopyrimidine analogues as JAK inhibitors” (Cellzome Limited, priority 2009, dated 2016):

How the values were obtained:
[1] = target: T1, JAK2 (Homo sapiens, UniProt O60674); assay: Kinobeads assay, JAK2; format: binding; conditions: mixed Molt4/Ramos cell lysate, dot blot detection
T1 construct: endogenous in cells; host or cells: Mixed Molt4/Ramos lysate (1:2)
Procedure, shortened: (§1)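 Competition pulldown: compound dilution series incubated 3 h in cold room with immobilized aminopyrido-pyrimidine beads and mixed Molt4/Ramos lysate (1:2, 10 mg/mL protein) in DP buffer pH 7.4 with NP40. Bead-bound JAK2/JAK3 eluted, quantified by antibody dot blot with infrared detection; IC50 from dose-response curves.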

[2] = target: T2, JAK3 (Homo sapiens, UniProt P52333); assay: Kinobeads assay, JAK3; format: binding; conditions: mixed Molt4/Ramos cell lysate, dot blot detection
T2 construct: endogenous in cells; host or cells: Mixed Molt4/Ramos lysate (1:2)
T2 sequence (P52333 1-1124): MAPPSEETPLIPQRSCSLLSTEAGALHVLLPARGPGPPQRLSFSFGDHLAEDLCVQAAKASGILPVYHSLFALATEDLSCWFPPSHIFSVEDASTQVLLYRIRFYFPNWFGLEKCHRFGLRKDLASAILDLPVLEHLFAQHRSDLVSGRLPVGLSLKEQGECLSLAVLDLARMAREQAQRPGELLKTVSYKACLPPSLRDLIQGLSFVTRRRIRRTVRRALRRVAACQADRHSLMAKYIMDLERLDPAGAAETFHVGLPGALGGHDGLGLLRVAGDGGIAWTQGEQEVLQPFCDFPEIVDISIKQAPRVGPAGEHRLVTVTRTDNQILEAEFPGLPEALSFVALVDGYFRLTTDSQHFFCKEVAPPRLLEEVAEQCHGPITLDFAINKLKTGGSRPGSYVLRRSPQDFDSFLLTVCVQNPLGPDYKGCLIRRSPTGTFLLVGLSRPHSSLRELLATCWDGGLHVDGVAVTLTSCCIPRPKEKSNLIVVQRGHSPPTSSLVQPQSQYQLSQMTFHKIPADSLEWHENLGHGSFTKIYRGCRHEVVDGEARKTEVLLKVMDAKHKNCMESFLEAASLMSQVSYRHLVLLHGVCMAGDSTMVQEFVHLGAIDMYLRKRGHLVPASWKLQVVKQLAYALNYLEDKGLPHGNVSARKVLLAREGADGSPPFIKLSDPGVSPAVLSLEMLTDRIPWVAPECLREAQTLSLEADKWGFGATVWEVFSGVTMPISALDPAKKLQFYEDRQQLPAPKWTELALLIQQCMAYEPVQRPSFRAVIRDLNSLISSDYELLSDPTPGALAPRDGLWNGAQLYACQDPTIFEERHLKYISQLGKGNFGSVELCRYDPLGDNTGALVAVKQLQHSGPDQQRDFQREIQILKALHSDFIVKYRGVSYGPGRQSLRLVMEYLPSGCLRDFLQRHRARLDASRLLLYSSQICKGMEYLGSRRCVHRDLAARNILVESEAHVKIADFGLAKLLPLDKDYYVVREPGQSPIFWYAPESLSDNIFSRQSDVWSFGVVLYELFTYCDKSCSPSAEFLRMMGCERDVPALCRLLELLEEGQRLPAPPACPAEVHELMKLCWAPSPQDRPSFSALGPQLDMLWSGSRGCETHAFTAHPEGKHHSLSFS
Procedure, shortened: as §1

T1 sequence (O60674 whole entry): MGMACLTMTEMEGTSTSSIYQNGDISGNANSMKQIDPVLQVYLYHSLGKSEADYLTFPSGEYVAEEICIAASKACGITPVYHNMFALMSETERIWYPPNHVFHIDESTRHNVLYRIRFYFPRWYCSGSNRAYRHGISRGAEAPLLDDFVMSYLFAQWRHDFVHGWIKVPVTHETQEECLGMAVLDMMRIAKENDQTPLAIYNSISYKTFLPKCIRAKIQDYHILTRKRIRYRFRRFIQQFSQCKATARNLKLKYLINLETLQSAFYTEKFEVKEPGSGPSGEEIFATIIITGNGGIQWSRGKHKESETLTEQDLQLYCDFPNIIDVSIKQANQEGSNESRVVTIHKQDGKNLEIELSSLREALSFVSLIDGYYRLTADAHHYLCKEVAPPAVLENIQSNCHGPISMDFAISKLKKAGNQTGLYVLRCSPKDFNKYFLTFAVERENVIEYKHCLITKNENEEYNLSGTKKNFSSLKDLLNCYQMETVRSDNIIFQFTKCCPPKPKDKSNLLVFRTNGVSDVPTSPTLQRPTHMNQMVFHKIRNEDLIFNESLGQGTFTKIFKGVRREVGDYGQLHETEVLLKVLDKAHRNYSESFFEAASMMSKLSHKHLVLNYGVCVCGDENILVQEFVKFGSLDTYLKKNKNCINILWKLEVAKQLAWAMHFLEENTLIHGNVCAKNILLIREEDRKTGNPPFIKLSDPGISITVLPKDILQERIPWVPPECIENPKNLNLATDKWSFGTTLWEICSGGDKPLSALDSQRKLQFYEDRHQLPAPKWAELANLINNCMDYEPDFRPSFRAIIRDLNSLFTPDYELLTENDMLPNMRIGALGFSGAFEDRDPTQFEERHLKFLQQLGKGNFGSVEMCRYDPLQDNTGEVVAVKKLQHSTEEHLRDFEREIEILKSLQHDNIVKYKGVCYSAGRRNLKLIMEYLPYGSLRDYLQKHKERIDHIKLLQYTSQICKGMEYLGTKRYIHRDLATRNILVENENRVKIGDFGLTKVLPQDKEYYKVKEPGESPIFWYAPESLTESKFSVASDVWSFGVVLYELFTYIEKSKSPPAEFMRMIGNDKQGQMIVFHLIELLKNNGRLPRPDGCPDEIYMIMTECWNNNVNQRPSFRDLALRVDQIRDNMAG

Row | IC50 [1] [nM] | IC50 [2] [nM] | Structure (SMILES)
1 | 100 to 1000 | < 100 | OCCn1cc(Nc2ncc3cnn(Cc4c(F)cccc4F)c3n2)cn1 [Example 73, 2-(4-((1-(2,6-Difluorobenzyl)-1H-pyrazolo[3,4-d]pyrimidin-6-yl)amino)-1H-pyrazol-1-yl)ethanol]
2 | 1000 to 10000 | 100 to 1000 | Cn1cc(Nc2ncc3cnn(-c4ccccc4)c3n2)cn1 [Example 74, N-(1-Methyl-1H-pyrazol-4-yl)-1-phenyl-1H-pyrazolo[3,4-d]pyrimidin-6-amine]
3 | 100 to 1000 | < 100 | Cn1cc(Nc2ncc3cnn(Cc4ccccc4NS(C)(=O)=O)c3n2)cn1 [Example 75, N-(2-((6-((1-Methyl-1H-pyrazol-4-yl)amino)-1H-pyrazolo[3,4-d]pyrimidin-1-yl)methyl)phenyl)methanesulfonamide]
4 | 1000 to 10000 | < 100 | Cn1cc(Nc2ncc3cnn(Cc4ccccc4)c3n2)cn1 [Example 76, 1-Benzyl-N-(1-methyl-1H-pyrazol-4-yl)-1H-pyrazolo[3,4-d]pyrimidin-6-amine]
5 | ≥ 10000 | 100 to 1000 | Cn1cc(Nc2ncc3cnn(CCc4ccccc4F)c3n2)cn1 [Example 77, 1-(2-Fluorophenethyl)-N-(1-methyl-1H-pyrazol-4-yl)-1H-pyrazolo[3,4-d]pyrimidin-6-amine]
6 | 1000 to 10000 | 100 to 1000 | Cn1cc(Nc2ncc3cnn(Cc4ccc(F)c(F)c4)c3n2)cn1 [Example 78, 1-(3,4-Difluorobenzyl)-N-(1-methyl-1H-pyrazol-4-yl)-1H-pyrazolo[3,4-d]pyrimidin-6-amine]
7 | 100 to 1000 | < 100 | Cn1cc(Nc2ncc3cnn(Cc4cc(F)cc(F)c4)c3n2)cn1 [Example 79, 1-(3,5-Difluorobenzyl)-N-(1-methyl-1H-pyrazol-4-yl)-1H-pyrazolo[3,4-d]pyrimidin-6-amine]
8 | 1000 to 10000 | < 100 | Cn1cc(Nc2ncc3cnn(Cc4cccc(C(N)=O)c4)c3n2)cn1 [Example 80, 3-((6-((1-Methyl-1H-pyrazol-4-yl)amino)-1H-pyrazolo[3,4-d]pyrimidin-1-yl)methyl)benzamide]
9 | 1000 to 10000 | 100 to 1000 | Cn1cc(Nc2ncc3cnn(CCc4cccc(F)c4)c3n2)cn1 [Example 81, 1-(3-Fluorophenethyl)-N-(1-methyl-1H-pyrazol-4-yl)-1H-pyrazolo[3,4-d]pyrimidin-6-amine]
10 | 1000 to 10000 | 100 to 1000 | Cn1cc(Nc2ncc3cnn(CCc4ccc(F)cc4)c3n2)cn1 [Example 82, 1-(4-Fluorophenethyl)-N-(1-methyl-1H-pyrazol-4-yl)-1H-pyrazolo[3,4-d]pyrimidin-6-amine]
11 | 1000 to 10000 | < 100 | Cc1cccc(Cn2ncc3cnc(Nc4cnn(C)c4)nc32)c1 [Example 83, N-(1-Methyl-1H-pyrazol-4-yl)-1-(3-methylbenzyl)-1H-pyrazolo[3,4-d]pyrimidin-6-amine]
12 | 1000 to 10000 | < 100 | Cc1ccccc1Cn1ncc2cnc(Nc3cnn(C)c3)nc21 [Example 84, N-(1-Methyl-1H-pyrazol-4-yl)-1-(2-methylbenzyl)-1H-pyrazolo[3,4-d]pyrimidin-6-amine]
13 | 1000 to 10000 | < 100 | Cn1cc(Nc2ncc3cnn(Cc4ccccc4OC(F)(F)F)c3n2)cn1 [Example 85, N-(1-Methyl-1H-pyrazol-4-yl)-1-(2-(trifluoromethoxy)benzyl)-1H-pyrazolo[3,4-d]pyrimidin-6-amine]
14 | ≥ 10000 | 100 to 1000 | Cn1cc(Nc2ncc3cnn(Cc4cccc(OC(F)(F)F)c4)c3n2)cn1 [Example 86, N-(1-Methyl-1H-pyrazol-4-yl)-1-(3-(trifluoromethoxy)benzyl)-1H-pyrazolo[3,4-d]pyrimidin-6-amine]
15 | 1000 to 10000 | < 100 | COc1ccccc1Cn1ncc2cnc(Nc3cnn(C)c3)nc21 [Example 87, 1-(2-Methoxybenzyl)-N-(1-methyl-1H-pyrazol-4-yl)-1H-pyrazolo[3,4-d]pyrimidin-6-amine]
16 | 1000 to 10000 | < 100 | Fc1ccccc1Cn1ncc2cnc(Nc3cn[nH]c3)nc21 [Example 88, 1-(2-Fluorobenzyl)-N-(1H-pyrazol-4-yl)-1H-pyrazolo[3,4-d]pyrimidin-6-amine]

Row | IC50 [1] [nM] | IC50 [2] [nM] | Structure (SMILES)
17 | 100 to 1000 | < 100 | CC(O)Cn1cc(Nc2ncc3cnn(Cc4ccccc4F)c3n2)cn1 (centres unmarked) [Example 89, 1-(4-((1-(2-Fluorobenzyl)-1H-pyrazolo[3,4-d]pyrimidin-6-yl)amino)-1H-pyrazol-1-yl)propan-2-ol]
18 | 100 to 1000 | < 100 | COc1cccc(F)c1Cn1ncc2cnc(Nc3cnn(C)c3)nc21 [Example 90, 1-(2-Fluoro-6-methoxybenzyl)-N-(1-methyl-1H-pyrazol-4-yl)-1H-pyrazolo[3,4-d]pyrimidin-6-amine]
19 | 100 to 1000 | < 100 | COc1ccc(F)cc1Cn1ncc2cnc(Nc3cnn(C)c3)nc21 [Example 91, 1-(5-Fluoro-2-methoxybenzyl)-N-(1-methyl-1H-pyrazol-4-yl)-1H-pyrazolo[3,4-d]pyrimidin-6-amine]
20 | 1000 to 10000 | < 100 | Cn1cc(Nc2ncc3cnn(Cc4ccccc4CO)c3n2)cn1 [Example 92, (2-((6-((1-Methyl-1H-pyrazol-4-yl)amino)-1H-pyrazolo[3,4-d]pyrimidin-1-yl)methyl)phenyl)methanol]
21 | ≥ 10000 | 100 to 1000 | COc1cccc(Cn2ncc3cnc(Nc4cnn(C)c4)nc32)c1F [Example 93, 1-(2-Fluoro-3-methoxybenzyl)-N-(1-methyl-1H-pyrazol-4-yl)-1H-pyrazolo[3,4-d]pyrimidin-6-amine]
22 | 1000 to 10000 | < 100 | COc1ccc(F)c(Cn2ncc3cnc(Nc4cnn(C)c4)nc32)c1 [Example 94, 1-(2-Fluoro-5-methoxybenzyl)-N-(1-methyl-1H-pyrazol-4-yl)-1H-pyrazolo[3,4-d]pyrimidin-6-amine]
23 | 1000 to 10000 | < 100 | CC(=O)n1cc(Nc2ncc3cnn(Cc4ccccc4F)c3n2)cn1 [Example 95, 1-(4-((1-(2-Fluorobenzyl)-1H-pyrazolo[3,4-d]pyrimidin-6-yl)amino)-1H-pyrazol-1-yl)ethanone]
24 | ≥ 10000 | 100 to 1000 | CS(=O)(=O)n1cc(Nc2ncc3cnn(Cc4ccccc4F)c3n2)cn1 [Example 96, 1-(2-Fluorobenzyl)-N-(1-(methylsulfonyl)-1H-pyrazol-4-yl)-1H-pyrazolo[3,4-d]pyrimidin-6-amine]
25 | ≥ 10000 | 100 to 1000 | Fc1ccccc1Cn1ncc2cnc(Nc3c[nH]nc3Cl)nc21 [Example 97, N-(3-Chloro-1H-pyrazol-4-yl)-1-(2-fluorobenzyl)-1H-pyrazolo[3,4-d]pyrimidin-6-amine]
26 | 100 to 1000 | < 100 | Cn1cc(Nc2ncc3cnn(Cc4c(F)ccc(F)c4F)c3n2)cn1 [Example 98, N-(1-Methyl-1H-pyrazol-4-yl)-1-(2,3,6-trifluorobenzyl)-1H-pyrazolo[3,4-d]pyrimidin-6-amine]
27 | ≥ 10000 | 100 to 1000 | Cn1cc(Nc2ncc3cnn(Cc4ccc(F)cc4)c3n2)cn1 [Example 99, 1-(4-Fluorobenzyl)-N-(1-methyl-1H-pyrazol-4-yl)-1H-pyrazolo[3,4-d]pyrimidin-6-amine]
28 | ≥ 10000 | 100 to 1000 | CC(C)c1cccc(Cn2ncc3cnc(Nc4cnn(C)c4)nc32)c1 [Example 100, 1-(3-Isopropylbenzyl)-N-(1-methyl-1H-pyrazol-4-yl)-1H-pyrazolo[3,4-d]pyrimidin-6-amine]
29 | 1000 to 10000 | 100 to 1000 | CC(C)c1ccccc1Cn1ncc2cnc(Nc3cnn(C)c3)nc21 [Example 101, 1-(2-Isopropylbenzyl)-N-(1-methyl-1H-pyrazol-4-yl)-1H-pyrazolo[3,4-d]pyrimidin-6-amine]
30 | 1000 to 10000 | 100 to 1000 | COCCOc1ccccc1Cn1ncc2cnc(Nc3cnn(C)c3)nc21 [Example 102, 1-(2-(2-Methoxyethoxy)benzyl)-N-(1-methyl-1H-pyrazol-4-yl)-1H-pyrazolo[3,4-d]pyrimidin-6-amine]
31 | 1000 to 10000 | 100 to 1000 | NC(=O)n1cc(Nc2ncc3cnn(Cc4ccccc4F)c3n2)cn1 [Example 103, 4-((1-(2-Fluorobenzyl)-1H-pyrazolo[3,4-d]pyrimidin-6-yl)amino)-1H-pyrazole-1-carboxamide]
